Converted amounts (≈) assume the structure as drawn.
Experiments:
[1] = tested on: Aspergillus niger; experiment: Minimum inhibitory concentration (MIC) against fungi on malt extract agar; assay type: cell-based; conditions: 336 h, 2 weeks at 28° C., 60 to 70% relative atmospheric humidity, read-out: Minimum inhibitory concentrations Aspergillus niger
Description: (§1) In each case, the active compounds according to the invention, in concentrations of from 0.1 mg/l to 5000 mg/l, were added to an agar which had been prepared using malt extracts. The MIC was determined after 2 weeks of storage at 28° C. and 60 to 70% relative atmospheric humidity. The MIC is the lowest concentration of active compound at which there is no colonization by the microbial species used.

[2] = tested on: Chaetomium globosum; experiment: as above; assay type: cell-based; conditions: 336 h, 2 weeks at 28° C., 60 to 70% relative atmospheric humidity, read-out: Minimum inhibitory concentrations Chaetomium globosum
Description: as §1

[3] = tested on: Penicillium brevicaule; experiment: as above; assay type: cell-based; conditions: 336 h, 2 weeks at 28° C., 60 to 70% relative atmospheric humidity, read-out: Minimum inhibitory concentrations Penicillium brevicaule
Description: as §1

[4] = tested on: mold fungi (Alternaria tenuis, Aspergillus flavus, Aspergillus niger, Aspergillus ustus, Cindosporum herbarum, Paecilomyces variotii, Penicillium citrium …); experiment: Test of dispersion coatings for resistance to mold; assay type: cell-based; conditions: coatings according to recipe A containing 1.0% (based on solids) of compound; even after rinsing out and wind tunnel exposure; 2-3 weeks, 29±1° C., 80-90% rel. humidity
Description: To test dispersion coatings for resistance to mold, the following procedure was adopted:
The paint to be tested was applied to both sides of a suitable base. To obtain results which are close to practice, some of the test specimens were rinsed out with running water (24 h, 20° C.) before the test for mold resistance; others were treated with a current of warm fresh air (7 days, 40° C.).
The samples prepared in this way were then placed on an agar nutrient medium, and both samples and nutrient medium were contaminated with fungal spores. After 2-3 weeks storage (29±1° C., 80-90% rel. atmospheric humidity), the samples were compared.
The coating is considered to be permanently mold-resistant if the sample remains free from fungus or at most a slight border infestation can be detected.
For the contamination, fungal spores of the following mold fungi were used, which are known as paint destroyers or are frequently encountered on coatings: […]

SMILES	MIC [1] [µg/mL]	MIC [2] [µg/mL]	MIC [3] [µg/mL]	melting point [°C]	Mold resistance of coating [4]
CCCCn1nnnc1I [Example 1, 5-Iodo-1-butyltetrazole]	5 (≈ 19.8 µM)	5 (≈ 19.8 µM)	< 1	31 to 37	–
Ic1nnnn1-c1ccccc1 [Example 2, 5-Iodo-1-phenyltetrazole]	< 40	< 40	< 40	123 to 129	mold resistant

From patent US8048903B2, “5-iodotetrazoles” (LANXESS Deutschland GmbH, priority 2004, dated 2011)
